Source: patent US20240409536A1, “COMPOUNDS AND METHODS FOR MODULATING SPLICING” (REMIX THERAPEUTICS INC., priority 2021, published 2024)
pIC50: −log10 of the molar value.

What was measured:
[1] = test system: HTT mRNA; assay: Splicing RT-qPCR assay, HTT canonical (CJ) and alternative (AJ) junction mRNA; type: cell-based; details: Homo sapiens, A673 or K562 cells, 24 hours; for pIC50: decrease in canonical junction mRNA; for AC50: increase in alternative junction mRNA
In short: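 Splice switching was scored by qPCR detection of the new alternative-exon junction (AJ) alongside the canonical junction (CJ). Cell lines A673 or K562 received compound 24 h, top dose 10 uM final.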

[2] = test system: HiBiT-tagged HTT protein; assay: HiBiT protein abundance assay, HTT (K562 HiBiT knock-in cells); type: cell-based, human; details: 24 hours
In short: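 K562 cells with endogenous HiBiT knock-in tag, 10-point 3-fold dilutions (top 10 μM final, ≤0.25% DMSO), 24 h at 37 °C. Lytic Nano-Glo HiBiT luminescence, normalized to DMSO and unmodified K562 baselines; IC50 is concentration giving 50% protein abundance from four-parameter fit.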

[3] = test system: K562 cells; assay: Cell Titer Glo 2.0 cell viability assay in K562 cells; details: 72 hours

Compound	pIC50 [1]	AC50 [1] [nM]	pIC50 [2]	Viability [3]
Cc1cn2cc(NC(=O)c3ccc(N4CCN5CCOC[C@H]5C4)c4nccnc34)cc(F)c2n1 [Compound 256, (R)—N-(8-fluoro-2-methylimidazo[1,2-a]pyridin-6-yl)-8-(hexahydropyrazino[2,1-c][1,4]oxazin-8(1H)-yl)quinoxaline-5-carboxamide]	5.00 to 6.00	1000 to 10000	5.00 to 6.00	C (C represents 1000-9999 nM)
Cc1cn2cc(NC(=O)c3ccc(N4CC(C)NC(C)C4)c4nc(C)c(C)nc34)cc(F)c2n1 (stereo not shown) [Compound 257]	5.00 to 6.00	1000 to 10000	5.00 to 6.00	B (B represents 100-1000 nM)
Cc1cn2cc(NC(=O)c3ccc(N4CCC(NC5CC5)CC4)c4nccnc34)cc(F)c2n1 [Compound 258, 8-(4-(cyclopropylamino)piperidin-1-yl)-N-(8-fluoro-2-methylimidazo[1,2-a]pyridin-6-yl)quinoxaline-5-carboxamide]	6.00 to 7.00	100 to 1000	6.00 to 7.00	B (B represents 100-1000 nM)
Cc1cn2cc(NC(=O)c3ccc(N4CCC(NC5CC5)CC4)c4ccnnc34)cc(F)c2n1 [Compound 259, 5-[4-(cyclopropylamino)piperidin-1-yl]-N-{8-fluoro-2-methylimidazo[1,2-a]pyridin-6-yl} cinnoline-8-carboxamide]	6.00 to 7.00	100 to 1000	6.00 to 7.00	A (A represents <100 nM)
COc1nc2c(N3C[C@@H](C)N[C@@H](C)C3)ccc(C(=O)Nc3cc(F)c4nc(C)cn4c3)c2nc1C [Compound 260, 8-((3R,5S)-3,5-dimethylpiperazin-1-yl)-N-(8-fluoro-2-methylimidazo[1,2-a]pyridin-6-yl)-2-methoxy-3-methylquinoxaline-5-carboxamide; 2,2,2-trifluoroacetate]	6.00 to 7.00	1000 to 10000	5.00 to 6.00	C (C represents 1000-9999 nM)
Cc1cn2cc(NC(=O)c3c(F)cc(N4C[C@@H](C)N[C@@H](C)C4)c4nccnc34)cc(F)c2n1 [Compound 261, cis-8-[(3R,5S)-3,5-dimethylpiperazin-1-yl]-6-fluoro-N-{8-fluoro-2-methylimidazo[1,2-a]pyridin-6-yl}quinoxaline-5-carboxamide]	5.00 to 6.00	1000 to 10000	5.00 to 6.00	B (B represents 100-1000 nM)
Cc1cn2cc(NC(=O)c3ccc(N4C[C@@H](C)N[C@@H](C5CC5)C4)c4nccnc34)cc(F)c2n1 [Compound 266, 8-((3S,5R)-3-cyclopropyl-5-methylpiperazin-1-yl)-N-(8-fluoro-2-methylimidazo[1,2-a]pyridin-6-yl)quinoxaline-5-carboxamide]	5.00 to 6.00	100 to 1000	6.00 to 7.00	B (B represents 100-1000 nM)
Cc1cn2cc(NC(=O)c3ccc(N4C[C@@H](C5CC5)N[C@@H](C)C4)c4nccnc34)cc(F)c2n1 [Compound 267, 8-((3R,5S)-3-cyclopropyl-5-methylpiperazin-1-yl)-N-(8-fluoro-2-methylimidazo[1,2-a]pyridin-6-yl)quinoxaline-5-carboxamide]	< 5.00	> 10000	5.00 to 6.00	B (B represents 100-1000 nM)
COc1ccc2c(N3C[C@@H](C)N[C@@H](C)C3)ccc(C(=O)Nc3cc(F)c4nc(C)cn4c3)c2n1 [Compound 268, 5-[(3R,5S)-3,5-dimethylpiperazin-1-yl]-N-{8-fluoro-2-methylimidazo[1,2-a]pyridin-6-yl}-2-methoxyquinoline-8-carboxamide]	5.00 to 6.00	1000 to 10000	5.00 to 6.00	B (B represents 100-1000 nM)
Cc1cn2cc(NC(=O)c3ccc(N4CC[C@@H](N)C4)c4ccnnc34)cc(F)c2n1 [Compound 270]	5.00 to 6.00	1000 to 10000	5.00 to 6.00	B (B represents 100-1000 nM)
COc1cc2c(N3C[C@@H](C)N[C@@H](C)C3)ccc(C(=O)Nc3cc(F)c4nc(C)cn4c3)c2nn1 [Compound 273, 5-[(3R,5S)-3,5-dimethylpiperazin-1-yl]-N-{8-fluoro-2-methylimidazo[1,2-a]pyridin-6-yl}-3-methoxycinnoline-8-carboxamide]	6.00 to 7.00	100 to 1000	6.00 to 7.00	B (B represents 100-1000 nM)
COc1nc(NC(=O)c2ccc(N3C[C@@H](C)N[C@@H](C)C3)c3nccnc23)cn2cc(C)nc12 [Compound 277]	6.00 to 7.00	1000 to 10000	6.00 to 7.00	B (B represents 100-1000 nM)
Cc1cn2cc(NC(=O)c3ccc(N4C[C@@H](C)N[C@@H](C)C4)c4ncc(Cl)nc34)cc(F)c2n1 [Compound 281]	< 5.00	> 10000	5.00 to 6.00	C (C represents 1000-9999 nM)
Cc1cn2cc(NC(=O)c3ccc(N4C[C@@H](C)N[C@@H](C)C4)c4ncc(N(C)C)nc34)cc(F)c2n1 [Compound 283]	6.00 to 7.00	100 to 1000	6.00 to 7.00	B (B represents 100-1000 nM)
Cc1cn2c(C)c(NC(=O)c3ccc(N4C[C@@H](C)N[C@@H](C)C4)c4nccnc34)cc(F)c2n1 [Compound 285]	5.00 to 6.00	1000 to 10000	5.00 to 6.00	C (C represents 1000-9999 nM)
COc1nc(NC(=O)c2ccc(N3C[C@@H](C)N[C@@H](C)C3)c3nccnc23)nc2cn(C)nc12 [Compound 287]	< 5.00	> 10000	< 5.00	D (D represents greater than 10 μM in K562 cells)

Compound	pIC50 [1]	AC50 [1] [nM]	pIC50 [2]	Viability [3]
Cc1cn2cc(NC(=O)c3ccc(N4C[C@@H](C)N[C@@H](C)C4)c4nccnc34)nc(C)c2n1 [Compound 288]	5.00 to 6.00	1000 to 10000	5.00 to 6.00	C (C represents 1000-9999 nM)
C[C@@H]1CN(c2ccc(C(=O)Nc3ccc4nc(N(C)C)oc4c3)c3nccnc23)C[C@H](C)N1 [Compound 290]	< 5.00	> 10000	< 5.00	D (D represents greater than 10 μM in K562 cells)
COc1nc2ccc(NC(=O)c3ccc(N4C[C@@H](C)N[C@@H](C)C4)c4nccnc34)cc2o1 [Compound 292]	< 5.00	> 10000	< 5.00	D (D represents greater than 10 μM in K562 cells)
Cc1cn2cc(NC(=O)c3ccc(N4C[C@@H](C)N[C@@H](C)C4)c4nccnc34)cc(C#N)c2n1 [Compound 294]	5.00 to 6.00	> 10000	< 5.00	D (D represents greater than 10 μM in K562 cells)
CCOc1cnc2c(N3C[C@@H](C)N[C@@H](C)C3)ccc(C(=O)Nc3cc(F)c4nc(C)cn4c3)c2n1 [Compound 296]	6.00 to 7.00	100 to 1000	6.00 to 7.00	B (B represents 100-1000 nM)
COc1nc(NC(=O)c2ccc(N3C[C@@H](C)N[C@@H](C)C3)c3nccnc23)cc2oc(C)nc12 [Compound 298]	< 5.00	> 10000	5.00 to 6.00	C (C represents 1000-9999 nM)
Cc1cn2cc(NC(=O)c3ccc(N4C[C@@H](C)N[C@@H](C)C4)c4cncnc34)cc(F)c2n1 [Compound 302]	5.00 to 6.00	1000 to 10000	5.00 to 6.00	C (C represents 1000-9999 nM)
Cc1cn2cc(NC(=O)c3ccc(N4C[C@@H](C)N[C@@H](C)C4)c4nccnc34)cc(Cl)c2n1 [Compound 304]	5.00 to 6.00	> 10000	< 5.00	B (B represents 100-1000 nM)
C[C@@H]1CN(c2ccc(C(=O)Nc3cc(F)c4nc(Cl)cn4c3)c3nccnc23)C[C@H](C)N1 [Compound 306]	< 5.00	> 10000	5.00 to 6.00	B (B represents 100-1000 nM)
CNc1nc(NC(=O)c2ccc(N3C[C@@H](C)N[C@@H](C)C3)c3nccnc23)cn2cc(C)nc12 [Compound 308]	< 5.00	> 10000	< 5.00	C (C represents 1000-9999 nM)
Cc1c(O)c(NC(=O)c2ccc(N3C[C@@H](C)N[C@@H](C)C3)c3nccnc23)cc2cn(C)nc12 [Compound 310]	< 5.00	> 10000	< 5.00	C (C represents 1000-9999 nM)
Cc1cn2cc(NC(=O)c3ccc(N4CC[C@@H](N)C4)c4nccnc34)cc(F)c2n1 [Compound 315]	< 5.00	1000 to 10000	5.00 to 6.00	B (B represents 100-1000 nM)
Cc1cn2cc(NC(=O)c3ccc(NC4CCNC4)c4nccnc34)cc(F)c2n1 (stereo not shown) [Compound 316]	< 5.00	1000 to 10000	5.00 to 6.00	B (B represents 100-1000 nM)
Cc1cn2cc(NC(=O)c3ccc(N4CCC5(CCN5)C4)c4nccnc34)cc(F)c2n1 (stereo not shown) [Compound 339]	5.00 to 6.00	1000 to 10000	5.00 to 6.00	B (B represents 100-1000 nM)
Cc1cn2cc(NC(=O)c3ccc(N4C[C@@H](C)N[C@@H](C)C4)c4cccnc34)cc(F)c2n1 [Compound 340]	5.00 to 6.00	1000 to 10000	5.00 to 6.00	B (B represents 100-1000 nM)
